Experimental data as given in PMC4367188 (ACS Chemical Neuroscience, 2015).
“Also recorded” adds a separate entry of the source.

Columns and labels:
[1] = test system: Thyroid Hormone; assay: Lead Profiling Screen radioligand binding; conditions: 10 μM ML352
[2] = biological target: Transporter, Norepinephrine (NET) (Homo sapiens, UniProt P23975); assay: Lead Profiling Screen radioligand binding
[3] = biological target: norepinephrine transporter (NET) (Homo sapiens, UniProt P23975); assay: [3H]NE uptake in HEK293 hNET cells; assay type: cell-based; conditions: transfected HEK 293 cells
Chain of norepinephrine transporter (NET) (P23975 whole entry): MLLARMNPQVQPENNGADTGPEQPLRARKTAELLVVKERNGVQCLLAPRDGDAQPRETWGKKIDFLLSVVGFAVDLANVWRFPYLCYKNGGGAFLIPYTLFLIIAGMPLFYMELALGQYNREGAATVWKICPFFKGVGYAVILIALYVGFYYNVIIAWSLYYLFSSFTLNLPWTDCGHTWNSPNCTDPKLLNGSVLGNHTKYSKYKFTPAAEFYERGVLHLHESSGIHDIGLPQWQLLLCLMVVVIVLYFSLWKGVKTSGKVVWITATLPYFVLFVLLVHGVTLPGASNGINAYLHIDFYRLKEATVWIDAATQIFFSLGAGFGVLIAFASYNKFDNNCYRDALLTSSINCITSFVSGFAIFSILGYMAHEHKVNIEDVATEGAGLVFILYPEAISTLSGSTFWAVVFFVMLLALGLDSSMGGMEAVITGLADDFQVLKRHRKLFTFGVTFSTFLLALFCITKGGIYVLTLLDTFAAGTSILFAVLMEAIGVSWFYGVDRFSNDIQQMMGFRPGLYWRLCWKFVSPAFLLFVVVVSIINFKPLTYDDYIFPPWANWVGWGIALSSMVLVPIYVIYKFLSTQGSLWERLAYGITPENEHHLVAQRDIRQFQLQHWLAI

[4] = biological target: Sertonin (5-Hydroxytrptamine) 5-HT2B (Homo sapiens, UniProt P41595); assay: Lead Profiling Screen radioligand binding
[5] = test system: GABAA, Muscimol, Central; assay: Lead Profiling Screen radioligand binding; conditions: 10 μM ML352
[6] = biological target: Adrenergic α1D (Homo sapiens, UniProt P25100); assay: Lead Profiling Screen radioligand binding
Chain of Adrenergic α1D (P25100 whole entry): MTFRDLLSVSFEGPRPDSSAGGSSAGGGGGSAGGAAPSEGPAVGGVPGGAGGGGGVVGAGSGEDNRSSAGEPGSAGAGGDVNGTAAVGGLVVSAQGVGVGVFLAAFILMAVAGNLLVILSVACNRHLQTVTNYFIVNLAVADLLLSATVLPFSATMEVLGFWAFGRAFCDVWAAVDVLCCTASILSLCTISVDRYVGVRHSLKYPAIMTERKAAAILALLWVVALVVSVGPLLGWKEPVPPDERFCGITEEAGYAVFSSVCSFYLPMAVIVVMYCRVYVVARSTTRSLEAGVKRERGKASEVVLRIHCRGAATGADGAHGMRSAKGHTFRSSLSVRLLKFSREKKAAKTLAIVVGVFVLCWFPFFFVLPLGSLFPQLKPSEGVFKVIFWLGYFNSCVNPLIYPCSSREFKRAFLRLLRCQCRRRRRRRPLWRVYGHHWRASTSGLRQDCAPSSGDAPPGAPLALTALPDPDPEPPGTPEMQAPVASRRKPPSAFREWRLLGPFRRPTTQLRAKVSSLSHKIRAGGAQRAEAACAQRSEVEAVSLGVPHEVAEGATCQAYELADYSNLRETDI

[7] = biological target: Adrenergic β1 (Homo sapiens, UniProt P08588); assay: Lead Profiling Screen radioligand binding
[8] = biological target: Bradykinin B2 (Homo sapiens, UniProt P30411); assay: Lead Profiling Screen radioligand binding
Chain of Bradykinin B2 (P30411 whole entry): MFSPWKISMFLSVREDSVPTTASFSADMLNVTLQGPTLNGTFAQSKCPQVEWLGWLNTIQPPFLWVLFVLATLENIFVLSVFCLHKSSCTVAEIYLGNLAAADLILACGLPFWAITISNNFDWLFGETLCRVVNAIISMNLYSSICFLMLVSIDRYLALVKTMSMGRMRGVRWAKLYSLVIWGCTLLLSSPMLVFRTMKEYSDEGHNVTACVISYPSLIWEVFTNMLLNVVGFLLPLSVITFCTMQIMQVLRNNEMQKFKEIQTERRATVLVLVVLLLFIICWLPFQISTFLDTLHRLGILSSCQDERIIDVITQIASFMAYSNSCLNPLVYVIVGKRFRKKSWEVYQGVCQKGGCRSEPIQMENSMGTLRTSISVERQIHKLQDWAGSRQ

[9] = test system: Phorbol Ester; assay: Lead Profiling Screen radioligand binding; conditions: 10 μM ML352
[10] = biological target: Estrogen Erα (Homo sapiens, UniProt P03372); assay: Lead Profiling Screen radioligand binding
[11] = test system: Glutamate, NMDA, Glycine; assay: Lead Profiling Screen radioligand binding; conditions: 10 μM ML352
[12] = biological target: Adenosine A1 (Homo sapiens, UniProt P30542); assay: Lead Profiling Screen radioligand binding
Chain of Adenosine A1 (P30542 whole entry): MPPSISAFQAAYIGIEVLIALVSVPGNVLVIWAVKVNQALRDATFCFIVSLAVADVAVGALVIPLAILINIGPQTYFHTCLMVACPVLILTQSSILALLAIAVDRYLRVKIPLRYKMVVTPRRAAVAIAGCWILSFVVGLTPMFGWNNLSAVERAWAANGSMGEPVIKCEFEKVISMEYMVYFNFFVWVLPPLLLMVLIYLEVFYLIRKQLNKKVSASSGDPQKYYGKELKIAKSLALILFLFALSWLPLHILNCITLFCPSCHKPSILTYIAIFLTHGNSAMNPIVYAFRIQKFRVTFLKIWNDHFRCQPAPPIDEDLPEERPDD

[13] = test system: Rolipram; assay: Lead Profiling Screen radioligand binding; conditions: 10 μM ML352
[14] = test system: Imidazoline I2, Central; assay: Lead Profiling Screen radioligand binding; conditions: 10 μM ML352
[15] = biological target: Nicotinic Acetylcholine α1, Bungarotoxin (Homo sapiens, UniProt P02708+P07510+Q07001); assay: Lead Profiling Screen radioligand binding
[16] = biological target: ChAT (Mus musculus, UniProt Q03059); assay: ChAT activity in mouse forebrain extracts; assay type: biochemical; conditions: concentrations well above the CHT Ki
Chain of ChAT (Q03059 whole entry): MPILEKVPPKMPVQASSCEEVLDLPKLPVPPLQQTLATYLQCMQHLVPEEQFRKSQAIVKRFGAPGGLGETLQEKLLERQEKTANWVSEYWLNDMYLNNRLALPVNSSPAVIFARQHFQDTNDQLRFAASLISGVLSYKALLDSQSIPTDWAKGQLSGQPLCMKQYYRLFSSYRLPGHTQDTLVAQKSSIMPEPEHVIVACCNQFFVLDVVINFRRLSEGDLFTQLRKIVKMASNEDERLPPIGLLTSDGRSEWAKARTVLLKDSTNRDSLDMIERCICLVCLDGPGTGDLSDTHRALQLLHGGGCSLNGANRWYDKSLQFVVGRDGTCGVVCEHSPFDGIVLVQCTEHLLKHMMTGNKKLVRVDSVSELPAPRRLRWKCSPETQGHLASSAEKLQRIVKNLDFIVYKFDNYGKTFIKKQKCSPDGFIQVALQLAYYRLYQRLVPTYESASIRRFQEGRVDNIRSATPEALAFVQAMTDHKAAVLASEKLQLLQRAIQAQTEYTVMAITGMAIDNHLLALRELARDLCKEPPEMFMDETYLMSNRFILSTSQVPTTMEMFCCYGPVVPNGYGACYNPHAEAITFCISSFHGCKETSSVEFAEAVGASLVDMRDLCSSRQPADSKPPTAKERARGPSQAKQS

[17] = biological target: Leukotriene, Cysteinyl CysLT1 (Homo sapiens, UniProt Q9Y271); assay: Lead Profiling Screen radioligand binding
[18] = biological target: dopamine transporter (DAT) (Homo sapiens, UniProt Q01959); assay: [3H]DA uptake in HEK293 hDAT cells; assay type: cell-based; conditions: transfected HEK 293 cells
[19] = biological target: Transporter, Dopamine (DAT) (Homo sapiens, UniProt Q01959); assay: Lead Profiling Screen radioligand binding
[20] = biological target: P450 1A2 (Homo sapiens, UniProt P05177); assay: cytochrome P450 inhibition; assay type: in vitro ADME
[21] = biological target: Prostanoid EP4 (Homo sapiens, UniProt P35408); assay: Lead Profiling Screen radioligand binding
[22] = biological target: Muscarinic M1 (Homo sapiens, UniProt P11229); assay: Lead Profiling Screen radioligand binding
[23] = biological target: T1, hCHT (Homo sapiens, UniProt Q9GZV3); assay: [3H]HC-3 binding to membranes from HEK hCHT cells; conditions: for [3H]HC-3 binding Bmax: relative to control
T1 sequence (Q9GZV3 1-580): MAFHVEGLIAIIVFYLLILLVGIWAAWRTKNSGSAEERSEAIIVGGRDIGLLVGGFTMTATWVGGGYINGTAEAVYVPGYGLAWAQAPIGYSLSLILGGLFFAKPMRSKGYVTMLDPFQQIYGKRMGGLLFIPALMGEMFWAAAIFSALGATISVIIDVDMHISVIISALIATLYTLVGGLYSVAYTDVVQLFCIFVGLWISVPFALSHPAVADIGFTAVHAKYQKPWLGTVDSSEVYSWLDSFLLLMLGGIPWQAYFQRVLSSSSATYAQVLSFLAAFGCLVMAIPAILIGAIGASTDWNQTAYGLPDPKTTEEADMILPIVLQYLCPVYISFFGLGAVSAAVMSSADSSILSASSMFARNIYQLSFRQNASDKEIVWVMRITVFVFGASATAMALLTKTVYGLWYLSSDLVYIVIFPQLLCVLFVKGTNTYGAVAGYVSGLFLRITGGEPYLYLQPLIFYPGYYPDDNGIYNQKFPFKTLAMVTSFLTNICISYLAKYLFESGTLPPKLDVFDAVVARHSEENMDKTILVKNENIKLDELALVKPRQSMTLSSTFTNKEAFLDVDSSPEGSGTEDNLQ

[24] = biological target: CHT (Mus musculus, UniProt Q8BGY9); assay: choline uptake in mouse forebrain synaptosomes; assay type: biochemical; conditions: ML352 at 300 nM in saturation choline transport assays
[25] = biological target: P450 2C9 (Homo sapiens, UniProt P11712)
[26] = biological target: Muscarinic M2 (Homo sapiens, UniProt P08172); assay: Lead Profiling Screen radioligand binding
Chain of Muscarinic M2 (P08172 whole entry): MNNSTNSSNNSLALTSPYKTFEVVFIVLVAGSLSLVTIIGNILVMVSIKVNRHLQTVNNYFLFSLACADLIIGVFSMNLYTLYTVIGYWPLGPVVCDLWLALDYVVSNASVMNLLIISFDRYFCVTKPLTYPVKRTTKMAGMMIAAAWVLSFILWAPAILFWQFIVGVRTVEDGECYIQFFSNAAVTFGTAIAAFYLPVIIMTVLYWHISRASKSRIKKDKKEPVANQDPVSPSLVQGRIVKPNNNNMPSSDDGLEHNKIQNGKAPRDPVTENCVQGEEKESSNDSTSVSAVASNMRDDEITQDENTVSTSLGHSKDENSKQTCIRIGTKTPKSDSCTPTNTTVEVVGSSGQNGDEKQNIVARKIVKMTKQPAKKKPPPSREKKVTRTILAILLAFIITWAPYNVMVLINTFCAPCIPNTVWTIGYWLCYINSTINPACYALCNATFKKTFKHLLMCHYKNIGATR

[27] = biological target: Interleukin IL-1 (Mus musculus, UniProt P13504); assay: Lead Profiling Screen radioligand binding
Chain of Interleukin IL-1 (P13504 20-576): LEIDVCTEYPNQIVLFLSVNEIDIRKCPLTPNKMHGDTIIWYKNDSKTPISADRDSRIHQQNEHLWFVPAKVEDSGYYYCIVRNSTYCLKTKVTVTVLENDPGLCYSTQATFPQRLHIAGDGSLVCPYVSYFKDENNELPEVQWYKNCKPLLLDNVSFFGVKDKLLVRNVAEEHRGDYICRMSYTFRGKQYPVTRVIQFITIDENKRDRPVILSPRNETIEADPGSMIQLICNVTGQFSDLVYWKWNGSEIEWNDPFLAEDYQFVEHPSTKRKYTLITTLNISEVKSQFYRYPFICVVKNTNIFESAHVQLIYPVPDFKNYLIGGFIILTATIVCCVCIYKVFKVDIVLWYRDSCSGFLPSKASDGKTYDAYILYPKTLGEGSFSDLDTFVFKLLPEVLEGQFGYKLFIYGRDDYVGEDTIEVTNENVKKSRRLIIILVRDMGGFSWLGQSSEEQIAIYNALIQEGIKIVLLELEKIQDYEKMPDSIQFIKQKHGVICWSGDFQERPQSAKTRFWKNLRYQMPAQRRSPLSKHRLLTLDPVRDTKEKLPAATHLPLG

[28] = biological target: Epidermal Growth Factor (EGF) (Homo sapiens, UniProt P00533); assay: Lead Profiling Screen radioligand binding
[29] = biological target: P450 2D6 (Homo sapiens, UniProt P10635); assay: cytochrome P450 inhibition
Chain of P450 2D6 (P10635 whole entry): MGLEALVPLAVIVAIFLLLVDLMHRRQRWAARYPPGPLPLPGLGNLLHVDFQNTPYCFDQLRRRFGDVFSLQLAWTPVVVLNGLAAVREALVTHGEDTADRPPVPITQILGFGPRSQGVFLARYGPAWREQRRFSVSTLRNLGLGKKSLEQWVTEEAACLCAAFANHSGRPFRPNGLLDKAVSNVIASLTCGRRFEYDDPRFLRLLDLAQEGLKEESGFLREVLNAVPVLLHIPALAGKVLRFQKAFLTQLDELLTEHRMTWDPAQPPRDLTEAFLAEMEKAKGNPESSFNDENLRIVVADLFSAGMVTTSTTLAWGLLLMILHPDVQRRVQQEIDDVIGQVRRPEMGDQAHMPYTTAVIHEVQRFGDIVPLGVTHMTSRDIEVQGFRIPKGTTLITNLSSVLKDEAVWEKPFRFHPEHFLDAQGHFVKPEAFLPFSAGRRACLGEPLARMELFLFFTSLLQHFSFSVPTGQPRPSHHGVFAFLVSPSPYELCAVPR

[30] = biological target: Histamine, H3 (Homo sapiens, UniProt Q9Y5N1); assay: Lead Profiling Screen radioligand binding
[31] = biological target: Platelet Activating Factor (PAF) (Homo sapiens, UniProt P25105); assay: Lead Profiling Screen radioligand binding
Chain of Platelet Activating Factor (PAF) (P25105 whole entry): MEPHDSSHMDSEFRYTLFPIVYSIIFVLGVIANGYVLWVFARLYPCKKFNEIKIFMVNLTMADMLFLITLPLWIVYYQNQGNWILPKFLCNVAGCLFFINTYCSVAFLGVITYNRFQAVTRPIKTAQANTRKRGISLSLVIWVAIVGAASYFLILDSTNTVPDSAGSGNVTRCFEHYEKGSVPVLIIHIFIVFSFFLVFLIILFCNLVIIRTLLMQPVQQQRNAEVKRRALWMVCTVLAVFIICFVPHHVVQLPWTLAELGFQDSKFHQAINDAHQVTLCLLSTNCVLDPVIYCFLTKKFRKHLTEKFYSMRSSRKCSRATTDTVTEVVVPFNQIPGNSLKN

[32] = test system: Sodium Channel, Site 2; assay: Lead Profiling Screen radioligand binding; conditions: 10 μM ML352
[33] = test system: GABAA, Flunitrazepam, Central; assay: Lead Profiling Screen radioligand binding; conditions: 10 μM ML352
[34] = biological target: Adrenergic α1B (Rattus norvegicus, UniProt P15823); assay: Lead Profiling Screen radioligand binding
Chain of Adrenergic α1B (P15823 whole entry): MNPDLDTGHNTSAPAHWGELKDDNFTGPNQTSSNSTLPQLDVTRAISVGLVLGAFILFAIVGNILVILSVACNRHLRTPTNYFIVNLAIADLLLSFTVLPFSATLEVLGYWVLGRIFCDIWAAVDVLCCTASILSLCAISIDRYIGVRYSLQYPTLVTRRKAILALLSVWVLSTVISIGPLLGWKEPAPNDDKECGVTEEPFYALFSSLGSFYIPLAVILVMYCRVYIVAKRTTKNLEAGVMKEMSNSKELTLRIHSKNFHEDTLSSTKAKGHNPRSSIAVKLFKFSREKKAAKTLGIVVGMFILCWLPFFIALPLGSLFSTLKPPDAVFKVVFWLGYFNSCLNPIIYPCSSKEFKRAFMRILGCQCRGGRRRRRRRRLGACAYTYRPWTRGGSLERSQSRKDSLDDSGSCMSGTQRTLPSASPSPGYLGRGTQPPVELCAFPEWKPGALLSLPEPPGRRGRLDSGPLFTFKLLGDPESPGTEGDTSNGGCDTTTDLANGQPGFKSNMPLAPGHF

[35] = biological target: Adenosine A3 (Homo sapiens, UniProt P0DMS8); assay: Lead Profiling Screen radioligand binding
[36] = biological target: Transporter, Serotonin (5-hydroxytryptamine) (SERT) (Homo sapiens, UniProt P31645); assay: Lead Profiling Screen radioligand binding

Chain of Transporter, Norepinephrine (NET) (P23975 whole entry): as the sequence (P23975 whole entry) above

Which “% inhibition” value [1] does the source give for `COc1ccc(C(=O)NCc2cc(C(C)C)no2)cc1OC1CCN(C)CC1` [ML352, N-((3-isopropylisoxazol-5-yl)methyl)-4-methoxy-3-((1-methylpiperidin-4-yl)oxy)benzamide] here?
Its value is 6%.

What about the inhibition at 10 µM [2] of the same compound?
Its inhibition at 10 µM is 12%.

And the “inhibitory activity at NET” value [3]?
The value was “lack of inhibitory activity”.

And the inhibition at 10 µM [4]?
Its inhibition at 10 µM is -7%.

And the “% inhibition” value [5]?
The value was 9%.

And the inhibition at 10 µM [6]?
The inhibition at 10 µM was 24%.

What about the inhibition at 10 µM [7] of the same compound?
The inhibition at 10 µM was 2%.

And the inhibition at 10 µM [8]?
The inhibition at 10 µM was -3%.

What about the “% inhibition” value [9] of the same compound?
Its value is 5%.

What about the inhibition at 10 µM [10] of the same compound?
The inhibition at 10 µM was 4%.

And the “% inhibition” value [11]?
Its value is 4%.

What about the inhibition at 10 µM [12] of the same compound?
Its inhibition at 10 µM is -5%.

And the “% inhibition” value [13]?
Its value is 1%.

What about the “% inhibition” value [14] of the same compound?
The value was 16%.

What about the inhibition at 10 µM [15] of the same compound?
The inhibition at 10 µM was 7%.

And the “inhibition of ChAT activity” value [16]?
Its value is “no ability; also recorded: lacks activity; also recorded: no inhibition”.

What about the inhibition at 10 µM [17] of the same compound?
Its inhibition at 10 µM is -3%.

And the “inhibitory activity at DAT” value [18]?
Its value is “lack of inhibitory activity”.

And the inhibition at 10 µM [19]?
Its inhibition at 10 µM is 4%.

And the IC50 [20]?
The IC50 was over 30 µM.

What about the inhibition at 10 µM [21] of the same compound?
The inhibition at 10 µM was -7%.

And the inhibition at 10 µM [22]?
Its inhibition at 10 µM is 32%.

What about the “[3H]HC-3 binding Bmax” value ([23]; 200 nM ML352) of the same compound?
The value was 80.3 ± 3.8%.

What about the “[3H]HC-3 binding Bmax” value ([23]; 800 nM ML352) of the same compound?
Its value is 48.9 ± 4.1%.

And the “mode of inhibition of [3H]HC-3 binding” value ([23]; transfected cell membranes, 200 and 800 nM ML352)?
The value was “noncompetitive inhibition”.

What about the “mode of choline uptake inhibition” value [24] of the same compound?
Its value is “noncompetitively inhibits”.

And the IC50 [25]?
The IC50 was over 30 µM.

What about the inhibition at 10 µM [26] of the same compound?
Its inhibition at 10 µM is 12%.

And the inhibition at 10 µM [27]?
The inhibition at 10 µM was -2%.

What about the inhibition at 10 µM [28] of the same compound?
Its inhibition at 10 µM is 5%.

What about the IC50 [29] of the same compound?
The IC50 was over 30 µM.

What about the inhibition at 10 µM [30] of the same compound?
Its inhibition at 10 µM is 7%.

What about the inhibition at 10 µM [31] of the same compound?
Its inhibition at 10 µM is -4%.

What about the “% inhibition” value [32] of the same compound?
Its value is 20%.

And the “% inhibition” value [33]?
The value was 6%.

And the inhibition at 10 µM [34]?
The inhibition at 10 µM was 3%.

What about the inhibition at 10 µM [35] of the same compound?
The inhibition at 10 µM was 4%.

And the inhibition at 10 µM [36]?
The inhibition at 10 µM was 2%.
